Data: ChEMBL document CHEMBL2203192, “Creation of an HDAC-based yeast screening method for evaluation of marine-derived actinomycetes: discovery of streptosetin A” (J Nat Prod, 2012)
pIC50: −log10 of the molar value. Values after ≈ are worked out from the molar mass of the structure shown.

Tests used:
[1] = system: Saccharomyces cerevisiae; test: Inhibition of Sir2p in Saccharomyces cerevisiae DMY2843 assessed as minimum inhibitory concentration
[2] = target: T1, NAD-dependent protein deacetylase sirtuin-1 (Homo sapiens, UniProt Q96EB6); test: Inhibition of human recombinant SIRT1 using Arg-His-Lys-Lys(epsilon-acetyl)-AMC at room temperature for 45 mins by fluorescent screening assay
T1 sequence (Q96EB6 whole entry): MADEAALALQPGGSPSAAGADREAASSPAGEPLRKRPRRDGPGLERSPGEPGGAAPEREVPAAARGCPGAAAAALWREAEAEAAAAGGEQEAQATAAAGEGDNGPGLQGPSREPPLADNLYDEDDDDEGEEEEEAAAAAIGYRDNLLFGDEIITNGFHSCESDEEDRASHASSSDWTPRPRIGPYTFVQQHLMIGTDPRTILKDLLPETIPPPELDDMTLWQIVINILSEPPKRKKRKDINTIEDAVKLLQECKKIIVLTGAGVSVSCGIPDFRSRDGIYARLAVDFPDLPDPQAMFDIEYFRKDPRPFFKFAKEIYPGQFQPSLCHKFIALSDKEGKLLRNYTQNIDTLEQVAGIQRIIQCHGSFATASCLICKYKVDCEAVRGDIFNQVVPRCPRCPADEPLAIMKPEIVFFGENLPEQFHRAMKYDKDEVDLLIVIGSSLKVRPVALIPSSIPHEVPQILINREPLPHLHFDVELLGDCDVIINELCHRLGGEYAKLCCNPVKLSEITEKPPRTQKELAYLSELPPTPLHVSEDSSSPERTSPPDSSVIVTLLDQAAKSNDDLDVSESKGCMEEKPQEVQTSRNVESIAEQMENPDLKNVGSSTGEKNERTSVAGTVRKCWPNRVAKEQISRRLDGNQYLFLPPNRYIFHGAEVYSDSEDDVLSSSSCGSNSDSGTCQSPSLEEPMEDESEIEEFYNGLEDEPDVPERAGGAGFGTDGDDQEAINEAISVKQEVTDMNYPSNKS

[3] = system: Saccharomyces cerevisiae; test: Cytotoxicity against Saccharomyces cerevisiae DMY2843 at 10 mM; format: organism-based; details: in vivo, 10000 µM
[4] = target: T2, NAD-dependent protein deacetylase sirtuin-2 (Homo sapiens, UniProt Q8IXJ6); test: Inhibition of human recombinant SIRT2 using Arg-His-Lys-Lys(epsilon-acetyl)-AMC at 37 degC for 45 mins by fluorescent screening assay
T2 sequence (Q8IXJ6 whole entry): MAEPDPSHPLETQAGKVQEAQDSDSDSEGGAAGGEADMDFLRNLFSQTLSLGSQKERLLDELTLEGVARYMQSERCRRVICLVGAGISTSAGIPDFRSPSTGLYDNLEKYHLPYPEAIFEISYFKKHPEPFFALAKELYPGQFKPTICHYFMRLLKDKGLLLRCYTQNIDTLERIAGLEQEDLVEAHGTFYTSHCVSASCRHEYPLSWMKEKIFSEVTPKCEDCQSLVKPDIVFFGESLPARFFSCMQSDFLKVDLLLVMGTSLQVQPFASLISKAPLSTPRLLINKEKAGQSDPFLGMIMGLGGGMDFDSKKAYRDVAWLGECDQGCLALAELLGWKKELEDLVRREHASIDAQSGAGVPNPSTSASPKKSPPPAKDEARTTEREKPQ

MIC [1]	pIC50 [2]	pIC50 [4]	SMILES	Activity [3]
12.5 µM (≈ 4.93 µg/mL)			CC(NC(=O)c1ccccc1/N=C/c1c(O)ccc2ccccc12)c1ccccc1 (stereo not given)	
2500 µM (≈ 869 µg/mL)	2.43	2.35	CC[C@@H]1CC(=O)[C@H]2[C@@H](CC=C(C)[C@@H]2O)[C@]1(C)C(=O)C1=C(O)NCC1=O [STREPTOSETIN A]	Toxic
